Where only a bound is given, the exact number is not on record here.

Data on 7 molecules can be found in patent US7354936B2, “2-phenylpyran-4-one derivatives” (Almirall AG, priority 2000, dated 2008).

One data set has as its target T1, COX-1 (Homo sapiens, UniProt P23219).
T1 construct: Fresh blood from healthy volunteers; from tissue; host or cells: human whole blood (heparinized) from healthy volunteers
In words: COX-1 activity in human whole blood (TXB2, calcium ionophore A23187). The conditions noted are these: for IC50: 1 h at 37° C., TXB2 by ELISA. Format: cell-based.

In the next data set the target is T2, COX-2 (Homo sapiens, UniProt P35354).
T2 construct: incubated in the presence of LPS (10:g/ml) for 24 h at 37° C. in order to induce the COX-2 expression; from tissue; host or cells: human whole blood (heparinized) from healthy volunteers, LPS-stimulated for 24 h
T2 sequence (P35354 18-604): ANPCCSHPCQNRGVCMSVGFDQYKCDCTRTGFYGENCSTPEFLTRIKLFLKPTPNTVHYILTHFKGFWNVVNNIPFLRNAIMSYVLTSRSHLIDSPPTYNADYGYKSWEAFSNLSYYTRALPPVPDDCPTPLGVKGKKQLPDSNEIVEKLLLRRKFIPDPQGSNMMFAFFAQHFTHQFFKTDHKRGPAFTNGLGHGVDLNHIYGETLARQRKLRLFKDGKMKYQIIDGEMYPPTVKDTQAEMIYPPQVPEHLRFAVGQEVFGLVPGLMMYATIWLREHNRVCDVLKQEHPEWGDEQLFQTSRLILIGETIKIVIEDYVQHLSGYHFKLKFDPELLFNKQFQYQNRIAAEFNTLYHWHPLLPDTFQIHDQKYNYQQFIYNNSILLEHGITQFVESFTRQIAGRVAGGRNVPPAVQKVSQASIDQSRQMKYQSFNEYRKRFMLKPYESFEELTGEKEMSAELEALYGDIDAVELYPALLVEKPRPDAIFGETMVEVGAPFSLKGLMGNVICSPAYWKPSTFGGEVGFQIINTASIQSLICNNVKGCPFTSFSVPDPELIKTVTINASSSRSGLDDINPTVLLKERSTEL
In words: COX-2 activity in human whole blood (PGE2, LPS-induced). Format: cell-based. The following applies: for IC50: LPS 24 h at 37° C., PGE2 by ELISA; for Ratio COX-1/COX-2: ratio of COX-1/COX-2 IC50 values.

T1 sequence (P23219 24-599): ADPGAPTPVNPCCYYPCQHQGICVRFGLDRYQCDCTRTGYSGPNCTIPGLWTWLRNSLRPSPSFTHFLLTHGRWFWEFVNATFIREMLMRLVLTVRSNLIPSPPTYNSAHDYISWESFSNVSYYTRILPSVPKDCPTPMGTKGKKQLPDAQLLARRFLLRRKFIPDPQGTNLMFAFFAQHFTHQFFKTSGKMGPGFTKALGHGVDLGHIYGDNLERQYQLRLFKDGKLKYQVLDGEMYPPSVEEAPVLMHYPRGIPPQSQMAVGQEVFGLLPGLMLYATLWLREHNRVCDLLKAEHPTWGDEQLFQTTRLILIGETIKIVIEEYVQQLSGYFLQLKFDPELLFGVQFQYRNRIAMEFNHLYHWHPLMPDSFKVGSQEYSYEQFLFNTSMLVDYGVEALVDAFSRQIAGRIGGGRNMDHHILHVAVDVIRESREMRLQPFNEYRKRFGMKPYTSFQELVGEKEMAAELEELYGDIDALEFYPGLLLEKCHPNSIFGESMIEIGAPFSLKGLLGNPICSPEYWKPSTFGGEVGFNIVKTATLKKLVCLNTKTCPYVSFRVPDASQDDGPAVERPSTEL
Method for COX-1: (§1) COX-1 and COX-2 Activities in Human Whole Blood
For the COX-1 activity determination, 500:1 aliquots of blood were incubated with either 5:1 vehicle (dimethylsulphoxide) or 5:1 of a test compound for 1 h at 37° C. Calcium ionophore A23187 (25:M) was added 20 min before stopping the incubation. Plasma was separated by centrifugation (10 min at 13000 rpm) and kept at −30° C. until TXB2 levels were measured using an enzyme immunoassay kit (ELISA).
The effect of the compounds was evaluated by incubating each compound at five to six different concentrations with triplicate determinations. IC50 values were obtained by non-linear regression using InPlot, GraphPad software on an IBM computer.
Method for COX-2: as §1
Plasma was separated by centrifugation (10 min at 13000 rpm) and kept at −30° C. until PGE2 levels were measured using an enzyme immunoassay kit (ELISA). […] IC50 values were obtained by non-linear regression using InPlot, GraphPad software on an IBM computer.

Turning to `CC(=O)OCc1cc(=O)c(Oc2ccc(Cl)cc2)c(-c2ccc(S(C)(=O)=O)cc2)o1` [Example 31, Acetic acid [5-(4-chlorophenoxy)-6-(4-methanesulfonylphenyl)-4-oxo-4H-pyran-2-yl]methyl ester], the melting point is 115 °C. Further, at COX-1 (read-out: COX-1 inhibition at 100 μM, at 100 μM), the inhibition at 100 µM was found to be 17%. For the same molecule, on COX-2, the midpoint of inhibition, the IC50, lay at 1100 nM and the “Ratio COX-1/COX-2” value was above 90.
With `CCc1c(C)oc(-c2ccc(S(C)(=O)=O)cc2)c(Oc2ccc(F)cc2F)c1=O` [Example 21, 3-(2,4-Difluorophenoxy)-5-ethyl-2-(4-methanesulfonylphenyl)-6-methyl pyran-4-one], the melting point was determined as 173 °C. For the same molecule, the IC50 at COX-1 came out at 35600 nM. Besides, on COX-2, the IC50 amounted to 580 nM and the “Ratio COX-1/COX-2” value is on record as 62.
Molecule `Cc1cccc(Oc2c(-c3ccc(S(C)(=O)=O)cc3)oc(C)cc2=O)c1` [Example 11, 2-(4-Methanesulfonylphenyl)-6-methyl-3-(3-methylphenoxy)pyran-4-one] came in with a melting point of 162 °C. At COX-1, the IC50 was found to be 14200 nM. Also, at COX-2, the IC50 came out at 300 nM and the “Ratio COX-1/COX-2” value stood at 47.
Regarding `Cc1ccc(Oc2c(-c3ccc(S(C)(=O)=O)cc3)oc(C(F)F)cc2=O)cc1` [Example 36, 6-(1,1-Difluoromethyl)-2-(4-methanesulfonylphenyl)-3-(4-methylphenoxy)pyran-4-one], the melting point came out at 160 °C. Further, the IC50 on COX-1 came to 28500 nM. Further, at COX-2, half-maximal inhibition (IC50) was put at 97 nM and the “Ratio COX-1/COX-2” value was 294.
In the case of `CS(=O)(=O)c1ccc(-c2oc(CO)cc(=O)c2Oc2ccc(F)cc2F)cc1` [Example 22, 3-(2,4-Difluorophenoxy)-6-hydroxymethyl-2-(4-methanesulfonylphenyl) pyran-4-one], the melting point is 205 °C. Further, the IC50 at COX-1 came out at 53000 nM. Besides, at COX-2, the midpoint of inhibition, the IC50, lay at 190 nM and the “Ratio COX-1/COX-2” value is listed as 279.
For `C=Cc1c(C)oc(-c2ccc(S(C)(=O)=O)cc2)c(Oc2ccc(F)cc2F)c1=O` [Example 20, 3-(2,4-Difluorophenoxy)-2-(4-methanesulfonylphenyl)-6-methyl-5-vinyl pyran-4-one], the melting point amounted to 184 °C. Further, the concentration for half-maximal inhibition (IC50) on COX-1 was 31200 nM. For the same molecule, on COX-2, 1430 nM corresponded to half-maximal inhibition (IC50) and the “Ratio COX-1/COX-2” value was found to be 22.
`Cc1oc(-c2ccc(S(C)(=O)=O)cc2)c(Oc2ccc(Cl)cc2)c(=O)c1Cl` [Example 16, 3-Chloro-5-(4-chlorophenoxy)-6-(4-methanesulfonylphenyl)-2-methyl pyran-4-one] displayed a melting point of 274 °C. For the same molecule, at COX-1, the IC50 stood at 26000 nM. On COX-2, the IC50 was 530 nM and the “Ratio COX-1/COX-2” value is listed as 74.
